Read-outs that look alike come from different tables or passages of the source.
Assays:
[1] = system: mammary adenocarcinoma-17/Adr; assay: Test E: R-enantiomer of compound 22b and compound 22a against early stage mammary adenocarcinoma-17/Adr; type: in vivo
Protocol: Then, P.B.S. was added and the pH adjusted to 7 with HCl. A volume of 0.2 ml per injection was administered to animals intravenously. […] Then, P.B.S. was added and the pH was adjusted to 7 with HCl. A volume of 0.2 ml per injection was administered to animals intravenously.

colon carcinoma 26 = system: colon carcinoma 26
Protocol: In this trial the R-enantiomers of XK-469, compound 22c, and compound 22b were compared against advanced staged colon carcinoma 26 in female Balb/c mice. […] Cage #2 was 22b at 400 mg/kg and Cage #4 was 22c at 400 mg/kg.
The XK469-R, 22b, and 22c compound doses were all prepared the same, using 3% ethanol, 1% POE-80, and 0.5% sodium bicarbonate. The injection volume was 0.2 mu/mouse IV. […] The mice were Balb/c female mice: DOB Feb. 12, 2001; DOA Mar. 27, 2001; DOT Sep. 8, 2001, with an average body weight of 24.7 grams at the start of Rx administration. The tumor was Colon Carcinoma-26 passage 141; date of implant Sep. 8, 2001, and implanted at 30 to 60 mg fragments bilaterally SC. All tumors were 63 to 171 mg on day 6, the day of first Rx.

[2] = Cage 3, IV 36 mg/kg day 1, 48 mg/kg/inj qd 2-7, total 324 mg/kg
[3] = Cage 4, IV 7 inj, total 162 mg/kg
[4] = Cage 5, IV 7 inj, total 81 mg/kg
[5] = Cg 8, IV 110 mg/kg/inj days 6,10, total 220 mg/kg
[6] = Cg 6, IV 80 mg/kg/inj days 6,8,10,14,16, total 400 mg/kg
[7] = Cg 7, IV 50 mg/kg/inj days 6,8,10,13,15, total 250 mg/kg

CC(Oc1ccc(Oc2ccc3ccc(F)cc3n2)cc1)C(=O)O (racemic) [Compound 22a, 2-[4-(7-fluoroquinolin-2-yloxy)phenoxy]propanoic acid]
% Body Wt Loss at Nadir [1, 2]: −1.6% | % T/C mass [1, 2]: 14% | Activity Rating [1, 2]: ++ (1.3-1.9) | Day of Nadir [1, 2]: 5 days | Drug Deaths [1, 2]: 0/5 | Growth Delay [1, 2]: 5 days | Log Kill [1, 2]: 1.5 | Median Tumor Mass on day 9 (Range) [1, 2]: 138 (63-207) mg | Tumor Free day-23 [1, 2]: 0/5 | Neuromuscular toxicity ([1]; Cage 3, IV 48 mg/kg/inj, limits higher individual dosages): severe neuromuscular toxicity | Duration of leg dysfunction (front legs) ([1]; Cage 3, IV 48 mg/kg/inj, longer for the rear legs): 15 min | % Body Wt Loss at Nadir [1, 3]: −1.5% | % T/C mass [1, 3]: >100% | Activity Rating [1, 3]: inactive | Day of Nadir [1, 3]: 5 days | Drug Deaths [1, 3]: 0/5 | Growth Delay [1, 3]: 1 days | Log Kill [1, 3]: 0.3 | Median Tumor Mass on day 9 (Range) [1, 3]: 975 (252-1836) mg | Tumor Free day-23 [1, 3]: 0/5 | % Body Wt Loss at Nadir [1, 4]: −3.0% | % T/C mass [1, 4]: 77% | Activity Rating [1, 4]: inactive | Day of Nadir [1, 4]: 5 days | Drug Deaths [1, 4]: 0/5 | Growth Delay [1, 4]: 1 days | Log Kill [1, 4]: 0.3 | Median Tumor Mass on day 9 (Range) [1, 4]: 743 (725-1413) mg | Tumor Free day-23 [1, 4]: 0/5

O=P1(N(CCCl)CCCl)NCCCO1 (centres unmarked) [Cytoxan]
% Body Wt change at nadir (colon carcinoma 26; [5]): −9.4% | Activity Rating (colon carcinoma 26; [5]): no meaningful activity | CR's (colon carcinoma 26; [5]): 0/5 | Drug Deaths (colon carcinoma 26; [5]): 0/5 | Growth Delay (colon carcinoma 26; [5]): 1 days | Log Kill (colon carcinoma 26; [5]): 0.2 | Median time for tumors to 700 mg (range) (colon carcinoma 26; [5]): 14 (12-15) days | PR's (colon carcinoma 26; [5]): 0/5 | Tumor Free day-156 (colon carcinoma 26; [5]): 0/5 | day of nadir (colon carcinoma 26; [5]): 12 days

CC(Oc1ccc(Oc2cnc3ccc(Cl)cc3n2)cc1)C(=O)[O-].[Na+] (centres unmarked) [XK469-R]
% Body Wt change at nadir (colon carcinoma 26; [6]): −8.1% | Activity Rating (colon carcinoma 26; [6]): + (0.7-1.2) | CR's (colon carcinoma 26; [6]): 0/6 | Drug Deaths (colon carcinoma 26; [6]): 0/6 | Growth Delay (colon carcinoma 26; [6]): 5 days | Log Kill (colon carcinoma 26; [6]): 0.9 | Median time for tumors to 700 mg (range) (colon carcinoma 26; [6]): 18 (15-20) days | PR's (colon carcinoma 26; [6]): 0/6 | Tumor Free day-156 (colon carcinoma 26; [6]): 0/6 | day of nadir (colon carcinoma 26; [6]): 13 days | % Body Wt change at nadir (colon carcinoma 26; [7]): −4.0% | Activity Rating (colon carcinoma 26; [7]): inactive | CR's (colon carcinoma 26; [7]): 0/6 | Drug Deaths (colon carcinoma 26; [7]): 0/6 | Growth Delay in Days (colon carcinoma 26; [7]): none | Log Kill (colon carcinoma 26; [7]): none | Median time for tumors to 700 mg (range) (colon carcinoma 26; [7]): 13 (11.5-20) days | PR's (colon carcinoma 26; [7]): 0/6 | Tumor Free day-156 (colon carcinoma 26; [7]): 0/6 | day of nadir (colon carcinoma 26; [7]): 13 days
